Here are results for 5 compounds from ChEMBL document CHEMBL1201862, “PubChem BioAssay data set” (2004).

Test [1] deals with T1, Cannabinoid receptor 2 (Homo sapiens, UniProt P34972). Nature of the test: SAR analysis of agonists of the Cannabinoid Receptor 2 using an Image-Based Assay. [Related pubchem assays (depositor defined):AID2013, AID2026]. Type of test: functional.
Test [2] addresses T1, Cannabinoid receptor 2. Nature of the test: SAR analysis of antagonists of the Cannabinoid Receptor 2 using an Image-Based Assay. [Related pubchem assays (depositor defined):AID2013, AID2026]. Type of test: functional.
Test [3] concerns the target T2, G-protein coupled receptor 35 (Homo sapiens, UniProt Q9HC97). Nature of the test: SAR analysis of Agonists of the GPR35 Receptor using an Image-Based Assay - Set 2. [Related pubchem assays (depositor defined):AID2013, AID2026]. Format: functional.
For test [4], the target named is T3, Cannabinoid receptor 1 (Homo sapiens, UniProt P21554). The test can be described thus: SAR analysis of agonists of the Cannabinoid Receptor 1 using an Image-Based Assay - Set 2. [Related pubchem assays (depositor defined):AID2013, AID2026]. Type of test: functional.
T3 sequence (P21554 whole entry): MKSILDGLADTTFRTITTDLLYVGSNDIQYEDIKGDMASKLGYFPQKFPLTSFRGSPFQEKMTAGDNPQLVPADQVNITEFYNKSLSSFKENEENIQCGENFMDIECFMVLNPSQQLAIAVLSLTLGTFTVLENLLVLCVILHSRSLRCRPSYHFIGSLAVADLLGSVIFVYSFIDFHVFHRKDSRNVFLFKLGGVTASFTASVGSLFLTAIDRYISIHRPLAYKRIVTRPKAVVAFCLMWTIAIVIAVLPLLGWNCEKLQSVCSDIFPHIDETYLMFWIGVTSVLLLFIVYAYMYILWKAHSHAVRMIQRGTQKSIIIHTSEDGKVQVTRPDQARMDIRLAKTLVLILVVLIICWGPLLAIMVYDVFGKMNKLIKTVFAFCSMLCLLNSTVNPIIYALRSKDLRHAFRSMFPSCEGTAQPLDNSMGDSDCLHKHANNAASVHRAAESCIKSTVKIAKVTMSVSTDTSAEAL
Test [5] has as its target T3, Cannabinoid receptor 1. The test can be described thus: SAR analysis of antagonists of the Cannabinoid Receptor 1 using an Image-Based Assay - Set 2. [Related pubchem assays (depositor defined):AID2013, AID2026]. Type of test: functional.
In test [6] the target is T4, G-protein coupled receptor 55 (Homo sapiens, UniProt Q9Y2T6). The test can be described thus: GPR55 antagonists blocking LPI-driven arrestin recruitment, primary screen, imaging, U2OS, beta-arrestin-GFP, LPI agonist (AID 2013).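 Also: antagonist potency measured as reduced agonist-driven arrestin aggregation.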 Type of test: functional.
T4 sequence (Q9Y2T6 whole entry): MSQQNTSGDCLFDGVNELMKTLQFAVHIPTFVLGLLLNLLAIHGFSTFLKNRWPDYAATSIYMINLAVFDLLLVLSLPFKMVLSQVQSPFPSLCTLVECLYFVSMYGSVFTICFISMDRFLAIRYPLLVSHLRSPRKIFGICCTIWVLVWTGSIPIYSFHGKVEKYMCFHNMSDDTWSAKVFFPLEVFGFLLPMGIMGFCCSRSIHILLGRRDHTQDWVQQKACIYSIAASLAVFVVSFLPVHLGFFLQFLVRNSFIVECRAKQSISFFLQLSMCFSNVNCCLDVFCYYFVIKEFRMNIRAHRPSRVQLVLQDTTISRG
Test [7] concerns the target T2, G-protein coupled receptor 35. The test can be described thus: SAR analysis of Antagonists of the GPR35 Receptor using an Image-Based Assay - Set 3. [Related pubchem assays (depositor defined):AID2013, AID2026]. Format: functional.
For test [8], the target named is T4, G-protein coupled receptor 55. The test can be described thus: GPR55 antagonist potency of analogs, SAR follow-up, imaging, U2OS, beta-arrestin-GFP, LPI agonist, set 2 (AID 2820). Type of test: functional.
The target in test [9] is T5, E3 ubiquitin-protein ligase XIAP (Homo sapiens, UniProt P98170). Nature of the test: SAR analysis of Antagonists of IAP-family anti-apoptotic proteins. [Related pubchem assays (depositor defined):AID1018, AID1449, AID1513, AID1514, AID1638].
T5 sequence (P98170 whole entry, the tested form may be a part): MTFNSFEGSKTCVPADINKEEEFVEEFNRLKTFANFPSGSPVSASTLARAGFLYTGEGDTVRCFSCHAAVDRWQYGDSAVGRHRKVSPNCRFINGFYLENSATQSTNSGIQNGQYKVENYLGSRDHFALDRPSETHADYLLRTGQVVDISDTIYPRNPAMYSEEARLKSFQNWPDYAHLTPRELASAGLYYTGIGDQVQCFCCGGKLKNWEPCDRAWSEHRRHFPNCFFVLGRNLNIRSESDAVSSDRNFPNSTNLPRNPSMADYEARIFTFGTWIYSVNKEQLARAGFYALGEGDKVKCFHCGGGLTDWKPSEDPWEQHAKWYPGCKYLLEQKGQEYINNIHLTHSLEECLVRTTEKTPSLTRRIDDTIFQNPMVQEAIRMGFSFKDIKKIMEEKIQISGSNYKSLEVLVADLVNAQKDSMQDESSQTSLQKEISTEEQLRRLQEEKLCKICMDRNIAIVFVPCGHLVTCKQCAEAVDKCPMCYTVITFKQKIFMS
For test [10], the target named is T5, E3 ubiquitin-protein ligase XIAP. The test can be described thus: SAR analysis of Antagonists of XIAP-Bir3 domain of IAP-family anti-apoptotic proteins. [Related pubchem assays (depositor defined):AID1018, AID1449, AID1513, AID1514, AID1638].
In test [11] the target is T3, Cannabinoid receptor 1. The test can be described thus: SAR analysis of agonists of the Cannabinoid Receptor 1 using an Image-Based Assay - Set 4. [Related pubchem assays (depositor defined):AID2013, AID2026]. Type of test: functional.
For test [12], the target named is T1, Cannabinoid receptor 2. Nature of the test: SAR analysis of agonists of the Cannabinoid Receptor 2 using an Image-Based Assay - Set 3. [Related pubchem assays (depositor defined):AID2013, AID2026]. Format: functional.
Test [13] concerns the target T1, Cannabinoid receptor 2. The test can be described thus: SAR analysis of antagonists of the Cannabinoid Receptor 2 using an Image-Based Assay - Set 3. [Related pubchem assays (depositor defined):AID2013, AID2026]. Format: functional.
Test [14] has as its target T4, G-protein coupled receptor 55. Nature of the test: SAR Analysis of Selective Antagonists of GPR55 using an Image-Based Assay - Set 4. [Related pubchem assays (depositor defined):AID2013, AID2026]. Format: functional.
Test [15] has as its target T2, G-protein coupled receptor 35. The test can be described thus: SAR analysis of Agonists of the GPR35 Receptor using an Image-Based Assay - Set 4. [Related pubchem assays (depositor defined):AID2013, AID2026]. Format: functional.
The target in test [16] is T3, Cannabinoid receptor 1. Nature of the test: SAR analysis of antagonists of the Cannabinoid Receptor 1 using an Image-Based Assay - Set 4. [Related pubchem assays (depositor defined):AID2013, AID2026]. Type of test: functional.
The target of test [17] is T2, G-protein coupled receptor 35. Nature of the test: SAR analysis of Antagonists of the GPR35 Receptor using an Image-Based Assay - Set 6. [Related pubchem assays (depositor defined):AID2013, AID2026]. Type of test: functional.
Test [18] has as its target T6, Kappa-type opioid receptor (Homo sapiens, UniProt P41145). The test can be described thus: SAR analysis of small molecule antagonists of the kappa opioid receptor via a luminescent beta-arrestin assay - Set 5. [Related pubchem assays (depositor defined):AID1778, AID1785]. Format: functional.
In test [19] the target is T6, Kappa-type opioid receptor. The test can be described thus: SAR analysis of small molecule antagonists of the kappa opioid receptor via a luminescent beta-arrestin assay - Set 4. [Related pubchem assays (depositor defined):AID1777, AID1778, AID1785, AID1786, AID1966, AID2133, AID2136, AID2285]. Format: functional.
Test [20] deals with Tyrosine-protein phosphatase non-receptor type 12 (Homo sapiens, UniProt Q05209). Nature of the test: SAR Selectivity Analysis of small molecule inhibitors of PEST using pCAP in a fluorescence assay. [Related pubchem assays (depositor defined):AID1779, AID1784, AID2135]. Format: functional.
Sequence of Tyrosine-protein phosphatase non-receptor type 12 (Q05209 whole entry): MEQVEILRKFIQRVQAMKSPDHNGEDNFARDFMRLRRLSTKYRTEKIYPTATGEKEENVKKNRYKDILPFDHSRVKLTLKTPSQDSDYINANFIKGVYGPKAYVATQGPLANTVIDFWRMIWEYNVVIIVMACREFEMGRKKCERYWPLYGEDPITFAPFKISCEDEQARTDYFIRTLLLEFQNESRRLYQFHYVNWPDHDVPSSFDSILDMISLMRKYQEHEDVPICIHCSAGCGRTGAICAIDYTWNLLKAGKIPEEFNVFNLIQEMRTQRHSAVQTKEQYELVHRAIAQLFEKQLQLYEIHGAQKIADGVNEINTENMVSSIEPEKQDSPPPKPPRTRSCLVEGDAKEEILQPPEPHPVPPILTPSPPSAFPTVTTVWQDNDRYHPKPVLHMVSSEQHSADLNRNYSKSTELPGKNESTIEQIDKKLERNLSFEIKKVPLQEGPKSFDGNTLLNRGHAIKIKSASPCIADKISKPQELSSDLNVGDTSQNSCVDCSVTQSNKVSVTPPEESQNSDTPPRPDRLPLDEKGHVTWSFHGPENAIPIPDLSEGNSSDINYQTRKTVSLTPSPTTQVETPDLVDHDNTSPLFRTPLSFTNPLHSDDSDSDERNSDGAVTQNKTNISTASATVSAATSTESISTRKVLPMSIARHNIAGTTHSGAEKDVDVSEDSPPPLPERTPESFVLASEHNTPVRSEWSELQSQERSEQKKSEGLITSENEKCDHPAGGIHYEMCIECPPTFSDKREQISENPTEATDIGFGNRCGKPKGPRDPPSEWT
The target of test [21] is T7, Tyrosine-protein phosphatase non-receptor type 7 (Homo sapiens, UniProt P35236).
T7 sequence (P35236 whole entry): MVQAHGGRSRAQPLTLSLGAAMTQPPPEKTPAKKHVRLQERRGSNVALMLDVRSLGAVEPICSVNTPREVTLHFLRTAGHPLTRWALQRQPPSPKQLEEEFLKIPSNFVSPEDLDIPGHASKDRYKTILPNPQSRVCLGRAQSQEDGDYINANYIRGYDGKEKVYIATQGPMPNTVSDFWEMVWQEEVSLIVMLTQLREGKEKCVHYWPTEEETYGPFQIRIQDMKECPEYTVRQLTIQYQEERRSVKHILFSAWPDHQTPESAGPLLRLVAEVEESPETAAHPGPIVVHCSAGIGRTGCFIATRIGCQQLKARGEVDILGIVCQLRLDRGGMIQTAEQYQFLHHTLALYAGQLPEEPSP
The test can be described thus: HePTP (PTPN7) phosphatase inhibitor potency, SAR follow-up, biochemical, set 2 (AID 449736). Format: functional.

Test [22] deals with T8, Tyrosine-protein phosphatase non-receptor type 22 (Homo sapiens, UniProt Q9Y2R2).
T8 sequence (Q9Y2R2 whole entry): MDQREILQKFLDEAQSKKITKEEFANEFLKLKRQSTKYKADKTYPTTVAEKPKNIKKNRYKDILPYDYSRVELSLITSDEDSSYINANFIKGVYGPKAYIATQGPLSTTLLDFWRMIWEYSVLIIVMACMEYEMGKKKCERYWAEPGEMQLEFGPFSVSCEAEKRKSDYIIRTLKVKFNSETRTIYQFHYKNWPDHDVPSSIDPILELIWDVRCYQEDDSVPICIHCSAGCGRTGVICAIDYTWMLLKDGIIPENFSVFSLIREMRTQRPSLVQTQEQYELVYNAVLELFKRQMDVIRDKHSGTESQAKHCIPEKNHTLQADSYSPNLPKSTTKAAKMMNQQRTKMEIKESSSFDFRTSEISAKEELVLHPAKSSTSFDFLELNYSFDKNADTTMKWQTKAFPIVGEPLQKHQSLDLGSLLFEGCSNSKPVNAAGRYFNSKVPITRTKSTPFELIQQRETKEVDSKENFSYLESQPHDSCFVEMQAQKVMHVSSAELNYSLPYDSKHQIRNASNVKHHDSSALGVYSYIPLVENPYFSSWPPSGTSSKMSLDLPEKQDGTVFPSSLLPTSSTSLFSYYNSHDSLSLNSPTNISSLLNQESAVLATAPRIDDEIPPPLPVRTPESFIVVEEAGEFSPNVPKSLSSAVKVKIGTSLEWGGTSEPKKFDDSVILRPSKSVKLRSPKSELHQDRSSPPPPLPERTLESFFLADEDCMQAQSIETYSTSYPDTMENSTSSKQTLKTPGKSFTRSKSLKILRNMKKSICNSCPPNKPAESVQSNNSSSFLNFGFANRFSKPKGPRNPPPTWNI
The test can be described thus: LYP (PTPN22) phosphatase inhibitor potency, SAR follow-up, biochemical, pCAP fluorogenic substrate, fluorescence, set 3 (AID 449727). Format: functional.

Test [23] addresses T8, Tyrosine-protein phosphatase non-receptor type 22. Nature of the test: SAR LYP1 Fluorescent Assay using OMFP substrate for In Vitro dose response studies - Set 3. [Related pubchem assays (depositor defined):AID1779, AID1784, AID2140, AID2686]. Type of test: functional.
For test [24] the target is unchanged. The test can be described thus: SAR LYP1 Fluorescent Assay using pCAP substrate for In Vitro dose response studies - Set 2. [Related pubchem assays (depositor defined):AID1779, AID1784, AID2135, AID449727]. Format: functional.
Test [25] shares this target. Nature of the test: SAR LYP1 Fluorescent Assay using OMFP substrate for In Vitro dose response studies - Set 2. [Related pubchem assays (depositor defined):AID1779, AID1784, AID2140, AID449726, AID488869]. Format: functional.
The target is the same in test [26]. The test can be described thus: PubChem AID 2135.
Test [27] has the same target. The test can be described thus: PubChem AID 2140.

Activity calls are given as the source filed them.

T2 sequence (Q9HC97 whole entry): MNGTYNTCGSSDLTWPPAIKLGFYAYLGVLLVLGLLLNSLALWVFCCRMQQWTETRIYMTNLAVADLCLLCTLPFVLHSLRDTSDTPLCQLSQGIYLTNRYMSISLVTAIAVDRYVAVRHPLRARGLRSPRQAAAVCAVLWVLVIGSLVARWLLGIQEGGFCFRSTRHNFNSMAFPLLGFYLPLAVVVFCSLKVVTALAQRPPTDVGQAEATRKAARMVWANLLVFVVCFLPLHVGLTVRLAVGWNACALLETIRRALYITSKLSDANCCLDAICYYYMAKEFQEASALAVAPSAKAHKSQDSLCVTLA
T1 sequence (P34972 whole entry): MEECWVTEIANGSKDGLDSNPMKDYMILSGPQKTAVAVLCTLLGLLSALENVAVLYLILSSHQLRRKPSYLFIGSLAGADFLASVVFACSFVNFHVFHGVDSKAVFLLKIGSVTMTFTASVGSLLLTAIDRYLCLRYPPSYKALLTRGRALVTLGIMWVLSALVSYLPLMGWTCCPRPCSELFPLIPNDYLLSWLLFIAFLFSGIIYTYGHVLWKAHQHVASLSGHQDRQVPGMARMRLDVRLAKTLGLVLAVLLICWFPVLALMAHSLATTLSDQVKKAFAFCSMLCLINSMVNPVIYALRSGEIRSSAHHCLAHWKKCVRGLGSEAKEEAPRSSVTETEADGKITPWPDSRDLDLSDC
T6 sequence (P41145 whole entry): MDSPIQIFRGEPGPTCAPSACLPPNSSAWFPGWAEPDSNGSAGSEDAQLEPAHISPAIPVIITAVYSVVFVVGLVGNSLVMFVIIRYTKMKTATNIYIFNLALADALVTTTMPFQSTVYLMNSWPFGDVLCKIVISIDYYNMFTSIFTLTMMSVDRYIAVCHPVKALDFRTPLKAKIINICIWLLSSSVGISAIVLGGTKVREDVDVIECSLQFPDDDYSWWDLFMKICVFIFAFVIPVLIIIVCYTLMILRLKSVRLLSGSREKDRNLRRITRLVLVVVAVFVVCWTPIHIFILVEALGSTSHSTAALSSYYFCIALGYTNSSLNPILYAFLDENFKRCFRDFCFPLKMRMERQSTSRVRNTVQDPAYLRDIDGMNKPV

On to `CCCCC1(Cc2ccc(OC)c([N+](=O)[O-])c2)C(=O)N(c2ccccc2)N(c2ccccc2)C1=O`, for which the EC50 (on Cannabinoid receptor 2 [1]; in test [3]; on Cannabinoid receptor 1 [4]) was > 32 µM (inactive) in each case. The IC50 at Cannabinoid receptor 2 [2] is > 32 µM (inactive); on Cannabinoid receptor 1 [5], > 32 µM (inactive); in test [6], 3.42 µM (active); in test [7] it was > 32 µM (inactive); in test [8] it was 1.81 µM (active).

Take `CN[C@@H](C)C(=O)N[C@H](C(=O)N1CCC[C@H]1C(=O)NNc1ccccc1)C(C)C`: the IC50 in [9] was 1.3 µM (active); in [10], 2.9 µM (active).

Regarding `CCNC(=O)c1cc2c(=O)n3ccccc3nc2n(C2CCCC2)c1=N`, the EC50 at Cannabinoid receptor 1 [11] is > 32 µM (inactive); on Cannabinoid receptor 2 [12], 3.01 µM (active); in test [15] it was > 32 µM (inactive). Besides, the IC50 is > 32 µM (inactive) at Cannabinoid receptor 2 [13], 29.7 µM (inactive) in test [14], > 32 µM (inactive) on Cannabinoid receptor 1 [16] and > 32 µM (inactive) in [17].

In the case of `Cc1ccccc1S(=O)(=O)NCc1ccc(C(=O)NCCN(Cc2ccccc2)C(C)C)cc1`, the IC50 was 2.34 µM (active) in test [18] and 2.49 µM (active) in [19].

Regarding `N#C/C(=C/c1ccc(OCc2ccc(C(=O)O)cc2)cc1)c1cccc(F)c1`, the IC50 in test [20] was 21 µM (active); in test [21] it was 3.65 µM (active); in [22], > 100 µM (inactive); in test [23], 82.9 µM (active); in test [24], 86.7 µM (active); in test [25] it was 65.5 µM (active). For the same compound, the IC50 in test [26] and in [27] was > 100 µM (inactive) in each case.
